Patent US7985759B2, “Dipeptidyl peptidase IV inhibitors and processes for their preparation and pharmaceutical compositions containing them” (Matrix Laboratories Ltd., priority 2006, dated 2011)
pIC50: −log10 of the molar value.

Biological target: T1, Human recombinant DPP-IV (Homo sapiens, UniProt P27487)
T1 construct: host or cells: Sf9 insect cells
Assay: Assay of Dipeptidyl Peptidase IV activity (hydrolysis of Ala-Pro-AFC, fluorometric)
Format: biochemical
Settings: human recombinant DPP-IV (expressed in insect Sf9 cells), 20 μM Ala-Pro-AFC, 15 min preincubation, 30 min at 37° C., pH 8.0
Protocol: Assay of Dipeptidyl Peptidase IV Activity
The inhibition of proteolytic activity of DPP-IV was assayed by following the hydrolysis of Ala-Pro-7-amino-4-trifluoromethylcoumarin (Ala-Pro-AFC) and fluorometric quantitation of the liberated AFC. Human recombinant DPP-IV (expressed in insect Sf9 cells) was used for the assay. Test compounds were dissolved in dimethyl sulfoxide (DMSO). Generally, the enzyme (about 20 ng/ml in 100 mM Tris-HCl buffer, pH 8.0) was preincubated in the absence (1% DMSO) and presence of various concentrations of the test compounds for 15 min at 37° C. The reaction was initiated by the addition of 20 μM Ala-Pro-AFC and further incubated for 30 min at 37° C. The AFC liberated was measured in a spectrofluorometer with excitation and emission wavelengths set at 400 nm and 510 nm, respectively. Results are expressed as percent inhibition of enzyme activity. A reference standard (a known inhibitor of DPP-IV) was always included in the assay.

T1 sequence (P27487 whole entry): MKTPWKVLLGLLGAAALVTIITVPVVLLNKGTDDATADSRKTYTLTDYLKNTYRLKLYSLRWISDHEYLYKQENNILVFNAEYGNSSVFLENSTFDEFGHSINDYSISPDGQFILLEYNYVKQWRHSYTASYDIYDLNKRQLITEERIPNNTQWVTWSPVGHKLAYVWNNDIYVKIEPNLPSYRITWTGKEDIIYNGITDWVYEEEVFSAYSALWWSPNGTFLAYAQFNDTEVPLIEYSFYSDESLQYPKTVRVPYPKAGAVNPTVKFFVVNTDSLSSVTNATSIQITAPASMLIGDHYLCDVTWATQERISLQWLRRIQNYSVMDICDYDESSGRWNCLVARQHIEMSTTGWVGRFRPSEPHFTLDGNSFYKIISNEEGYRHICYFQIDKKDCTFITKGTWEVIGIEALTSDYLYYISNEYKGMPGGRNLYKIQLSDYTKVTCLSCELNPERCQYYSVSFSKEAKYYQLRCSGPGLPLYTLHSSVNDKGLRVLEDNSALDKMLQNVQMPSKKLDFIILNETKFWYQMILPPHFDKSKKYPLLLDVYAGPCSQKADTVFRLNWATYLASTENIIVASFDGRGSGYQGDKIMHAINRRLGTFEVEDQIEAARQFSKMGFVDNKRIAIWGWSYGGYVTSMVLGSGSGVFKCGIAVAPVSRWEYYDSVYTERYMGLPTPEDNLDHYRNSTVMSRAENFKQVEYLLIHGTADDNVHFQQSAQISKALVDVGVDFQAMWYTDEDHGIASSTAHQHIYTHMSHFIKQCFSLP

Compound	pIC50
CN1CCN(CC23CC4CC(C2)C(NCC(=O)N2CCC[C@H]2C#N)(C4)C3)CC1 (stereo partly drawn) [Example 6, (2S)-1-{N-[2-[(4-methylpiperazin-1-yl)methyl]hexahydro-2,5-methanopentalen-3a (1H)-yl]glycyl}pyrrolidine-2-carbonitrile]	7.00
N#C[C@@H]1CCCN1C(=O)CNC12CC3CC1CC(c1ccc(N)cc1)(C3)C2 (stereo partly drawn) [Example 30, (2S)-1-{N-[2-(4-aminophenyl)hexahydro-2,5-methanopentalen-3a(1H)-yl]glycyl}pyrrolidine-2-carbonitrile]	~7.49
N#C[C@@H]1CSCN1C(=O)CNC12CC3CC1CC(c1ccc(N4CCCS4(=O)=O)cc1)(C3)C2 (stereo partly drawn) [Example 14, (4R)-3-{N-[2-[4-(1,1-dioxidoisothiazolidin-2-yl)phenyl]hexahydro-2,5-methanopentalen-3a(1H)-yl]glycyl}-1,3-thiazolidine-4-carbonitrile]	8.19
N#C[C@@H]1CCCN1C(=O)CNC12CC3CC(CC1C3)C2 [Example 20, (2S)-1-[(tricyclo[3.3.1.0^3,7]non-3-ylamino)acetyl]pyrrolidine-2-carbonitrile]	7.52
COC12CC3CC(C1)C(NCC(=O)N1CCC[C@H]1C#N)(C3)C2 (stereo partly drawn) [Example 22, (2S)-1-{[(1-methoxytricyclo[3.3.1.0^3,7]non-3-yl)amino]acetyl}pyrrolidine-2-carbonitrile]	7.52
N#C[C@@H]1CCCN1C(=O)CNC12CC3CC1CC(c1ccccc1)(C3)C2 (stereo partly drawn) [Example 28, (2S)-1-[N-(2-phenylhexahydro-2,5-methanopentalen-3a(1H)-yl)glycyl]pyrrolidine-2-carbonitrile]	7.52
N#C[C@@H]1CCCN1C(=O)CNC12CC3CC1CC(N1CCCS1(=O)=O)(C3)C2 (stereo partly drawn) [Example 27, (2S)-1-{N-[2-(1,1-dioxidoisothiazolidin-2-yl)hexahydro-2,5-methanopentalen-3a(1H)-yl]glycyl}pyrrolidine-2-carbonitrile]	7.52
N#C[C@@H]1CCCN1C(=O)CNC12CC3CC1CC(O)(C3)C2 (stereo partly drawn) [Example 21, (2S)-1-{[(1-hydroxytricyclo[3.3.1.0^3,7]non-3-yl)amino]acetyl}pyrrolidine-2-carbonitrile]	7.19
N#C[C@@H]1CCCN1C(=O)CNC12CC3CC1CC(c1ccc(N4CCCS4(=O)=O)cc1)(C3)C2 (stereo partly drawn) [Example 11, (2S)-1-{N-[2-[4-(1,1-dioxidoisothiazolidin-2-yl)phenyl]hexahydro-2,5-methanopentalen-3a(1H)-yl]glycyl}pyrrolidine-2-carbonitrile]	7.70
N#C[C@@H]1CCCN1C(=O)CNC12CC3CC1CC(N)(C3)C2 (stereo partly drawn) [Example 24, (2S)-1-{[(1-aminotricyclo[3.3.1.0^3,7]non-3-yl)amino]acetyl}pyrrolidine-2-carbonitrile]	7.00
N#C[C@@H]1C[C@H](F)CN1C(=O)CNC12CC3CC1CC(Cn1cncn1)(C3)C2 (stereo partly drawn) [Example 2, (2S,4S)-4-fluoro-1-{N-[2-(1H-1,2,4-triazol-1-ylmethyl)hexahydro-2,5-methanopentalen-3a(1H)-yl]glycyl}pyrrolidine-2-carbonitrile]	8.55
N#C[C@@H]1CCCN1C(=O)CNC12CC3CC1CC(CN1C(=O)CSC1=O)(C3)C2 (stereo partly drawn) [Example 9, (2S)-1-{N-[2-[(2,4-dioxo-1,3-thiazolidin-3-yl)methyl]hexahydro-2,5-methanopentalen-3a(1H)-yl]glycyl}pyrrolidine-2-carbonitrile]	7.51
N#C[C@@H]1C[C@H](F)CN1C(=O)CNC12CC3CC1CC(c1ccc(N4CCCS4(=O)=O)cc1)(C3)C2 (stereo partly drawn) [Example 12, (2S,4S)-1-{N-[2-[4-(1,1-dioxidoisothiazolidin-2-yl)phenyl]hexahydro-2,5-methanopentalen-3a(1H)-yl]glycyl}-4-fluoropyrrolidine-2-carbonitrile]	8.30
N#C[C@@H]1CSCN1C(=O)CNC12CC3CC1CC(c1ccc(N4CCCC4=O)cc1)(C3)C2 (stereo partly drawn) [Example 17, (4R)-3-{N-[2-[4-(2-oxopyrrolidin-1-yl)phenyl]hexahydro-2,5-methanopentalen-3a(1H)-yl]glycyl}-1,3-thiazolidine-4-carbonitrile]	8.06
N#C[C@@H]1CCCN1C(=O)CNC12CC3CC1CC(Cc1ncon1)(C3)C2 (stereo partly shown) [Example 31]	7.68
N#C[C@@H]1CCCN1C(=O)CNC12CC3CC1CC(c1ccc([N+](=O)[O-])cc1)(C3)C2 (stereo partly drawn) [Example 29, (2S)-1-{N-[2-(4-nitrophenyl)hexahydro-2,5-methanopentalen-3a(1H)-yl]glycyl}pyrrolidine-2-carbonitrile]	~7.52

Compound	pIC50
CCOC12CC3CC(C1)C(NCC(=O)N1CCC[C@H]1C#N)(C3)C2 (stereo partly drawn) [Example 23, (2S)-1-{[(1-ethoxytricyclo[3.3.1.0^3,7]non-3-yl)amino]acetyl}pyrrolidine-2-carbonitrile]	7.92
N#C[C@@H]1C[C@H](F)CN1C(=O)CNC12CC3CC1CC(c1ccc(N4CCCC4=O)cc1)(C3)C2 (stereo partly drawn) [Example 16, (2S,4S)-4-fluoro-1-{N-[2-[4-(2-oxopyrrolidin-1-1)phenyl]hexahydro-2,5-methanopentalen-3a(1H)-yl]glycyl}pyrrolidine-2-carbonitrile]	9.02
N#C[C@@H]1CCCN1C(=O)CNC12CC3CC1CC(CN1C(=O)c4ccccc4C1=O)(C3)C2 (stereo partly drawn) [Example 10, (2S)-1-{N-[2-[(1,3-dioxo-1,3-dihydro-2H-isoindol-2-yl)methyl]hexahydro-2,5-methanopentalen-3a(1H)-yl]glycyl}pyrrolidine-2-carbonitrile]	~7.52
N#C[C@@H]1CCCN1C(=O)CNC12CC3CC1CC(c1ccc(-n4cccc4)cc1)(C3)C2 (stereo partly drawn) [Example 18, (2S)-1-{N-[2-[4-(1H-pyrrol-1-yl)phenyl]hexahydro-2,5-methanopentalen-3a (1H)-yl]glycyl}pyrrolidine-2-carbonitrile]	~7.52
N#C[C@@H]1CCCN1C(=O)CNC12CC3CC1CC(Cn1cnnn1)(C3)C2 (stereo partly drawn) [Example 5, (2S)-1-{N-[2-(1H-tetrazol-1-ylmethyl)hexahydro-2,5-methanopentalen-3a(1H)-yl]glycyl}pyrrolidine-2-carbonitrile]	7.96
N#C[C@@H]1CCCN1C(=O)CNC12CC3CC1CC(N1CCCC1=O)(C3)C2 (stereo partly drawn) [Example 26, (2S)-1-{N-[2-(2-oxopyrrolidin-1-yl)hexahydro-2,5-methanopentalen-3a(1H)-yl]glycyl}pyrrolidine-2-carbonitrile]	7.66
N#C[C@@H]1CCCN1C(=O)CNC12CC3CC1CC(c1ccc(N4CCCC4=O)cc1)(C3)C2 (stereo partly drawn) [Example 15, (2S)-1-{N-[2-[4-(2-oxopyrrolidin-1-yl)phenyl]hexahydro-2,5-methanopentalen-3a(1H)-yl]glycyl}pyrrolidine-2-carbonitrile]	8.40
N#C[C@@H]1CSCN1C(=O)CNC12CC3CC1CC(Cn1cncn1)(C3)C2 (stereo partly drawn) [Example 4, (4R)-3-{N-[2-(1H-1,2,4-triazol-1-ylmethyl)hexahydro-2,5-methanopentalen-3a(1H)-yl]glycyl}-1,3-thiazolidine-4-carbonitrile]	8.15
N#C[C@@H]1CCCN1C(=O)CNC12CC3CC1CC(F)(C3)C2 (stereo partly drawn) [Example 25, (2S)-1-[N-(2-fluorohexahydro-2,5-methanopentalen-3a(1H)-yl)glycyl]pyrrolidine-2-carbonitrile]	7.00
N#C[C@@H]1CCCN1C(=O)CNC12CC3CC1CC(CN1CCSCC1)(C3)C2 (stereo partly drawn) [Example 7, (2S)-1-{N-[2-(thiomorpholin-4-ylmethyl)hexahydro-2,5-methanopentalen-3a(1H)-yl]glycyl}pyrrolidine-2-carbonitrile]	7.52
N#C[C@@H]1CCCN1C(=O)CNC12CC3CC1CC(c1ccc(N4CCNC4=O)cc1)(C3)C2 (stereo partly drawn) [Example 19, (2S)-1-{N-[2-[4-(2-oxoimidazolidin-1-yl)phenyl]hexahydro-2,5-methanopentalen-3a(1H)-yl]glycyl}pyrrolidine-2-carbonitrile]	7.81
CN1CCN(c2ccc(C34CC5CC(C3)C(NCC(=O)N3CCC[C@H]3C#N)(C5)C4)cc2)C1=O (stereo partly shown) [Example 32]	7.27
N#C[C@@H]1CCCN1C(=O)CNC12CC3CC1CC(CN1CCCS1(=O)=O)(C3)C2 (stereo partly drawn) [Example 8, (2S)-1-{N-[2-[(1,1-dioxidoisothiazolidin-2-yl)methyl]hexahydro-2,5-methanopentalen-3a(1H)-yl]glycyl}pyrrolidine-2-carbonitrile]	7.66
N#C[C@@H]1CCCN1C(=O)CNC12CC3CC1CC(Cn1cncn1)(C3)C2 (stereo partly drawn) [Example 1, (2S)-1-[1H-1,2,4-triazol-1-ylmethyl(tricyclo[3.3.1.0^3,7]non-3-ylamino)acetyl]pyrrolidine-2-carbonitrile]	8.09
N#C[C@@H]1C[C@@H](F)CN1C(=O)CNC12CC3CC1CC(Cn1cncn1)(C3)C2 (stereo partly drawn) [Example 3, (2S,4R)-4-fluoro-1-{N-[2-(1H-1,2,4-triazol-1-ylmethyl)hexahydro-2,5-methanopentalen-3a(1H)-yl]glycyl}pyrrolidine-2-carbonitrile]	< 6.52
